In ChEMBL document CHEMBL4346665, “Synthesis and evaluation of tetrahydroquinolin-2(1H)-one derivatives as novel anti-pancreatic cancer agents via targeting autophagy” (Eur J Med Chem, 2019):

Tested on: PANC-1
Assay: Growth inhibition of human PANC1 cells in nutrient-deprived medium at 10 uM incubated for 24 hrs by MTT assay (reference value: 0.0 +/- 1.9%)
Type: functional
Conditions: PANC-1, 24 h

First: CC(C)=CCC1Cc2c(OC(=O)Nc3cccc(C(F)(F)F)c3)cc(=O)n(CCCO)c2CC1(C)C (configuration not stated)
Second: CC(C)=CCC/C(C)=C/CC1Cc2c(OC(=O)Nc3cccc(C(F)(F)F)c3)cc(=O)n(CCCO)c2CC1(C)C (configuration not stated)
The inhibition at 10 µM of the first is higher: 54.3% for the first, 44% for the second.

Compared with `CC(C)=CCOc1cc(=O)n(CCCO)c2c1CC(CC=C(C)C)C(C)(C)C2` (configuration not stated), `CC(C)=CCC/C(C)=C/CC1Cc2c(OCC=C(C)C)cc(=O)n(CCCO)c2CC1(C)C` (configuration not stated) is higher in inhibition at 10 µM: 20.7% for the first, 30.3% for the second.

First: CC(C)=CCC/C(C)=C/CC1Cc2c(OC(=O)Nc3ccc(F)cc3F)cc(=O)n(CCCO)c2CC1(C)C (configuration not stated)
Second: CC(C)=CCC/C(C)=C/CC1Cc2c(OC(=O)Nc3ccccc3F)cc(=O)n(CCCO)c2CC1(C)C (configuration not stated)
The inhibition at 10 µM of the first is lower: 33.7% for the first, 71.6% for the second.

First: CC(C)=CCC1Cc2c(OCCCNC(=O)c3ccco3)cc(=O)n(CCCO)c2CC1(C)C (configuration not stated)
Second: CC(C)=CCC1Cc2c(OCCCNC(=O)c3cccs3)cc(=O)n(CCCO)c2CC1(C)C (configuration not stated)
The inhibition at 10 µM of the first is lower: 2.1% for the first, 33.6% for the second.

Going from `CC(C)=CCC/C(C)=C/CC1Cc2c(OC(=O)Nc3ccc(F)cc3)cc(=O)n(CCCO)c2CC1(C)C` (configuration not stated) to `CC(C)=CCC/C(C)=C/CC1Cc2c(OC(=O)Nc3ccc(Cl)cc3)cc(=O)n(CCCO)c2CC1(C)C` (configuration not stated), the inhibition at 10 µM rises from 43.9% to 47.2%.

First: CC(C)=CCC1Cc2c(OCCCNS(=O)(=O)c3ccc(Cl)cc3)cc(=O)n(CCCO)c2CC1(C)C (configuration not stated)
Second: CC(C)=CCC1Cc2c(OCCCNS(=O)(=O)c3ccc([N+](=O)[O-])cc3)cc(=O)n(CCCO)c2CC1(C)C (configuration not stated)
The inhibition at 10 µM of the first is lower: 24.7% for the first, 47.7% for the second.

First: CC(C)=CCC/C(C)=C/CC1Cc2c(OCCCOc3ccc(Cl)cc3)cc(=O)n(CCCO)c2CC1(C)C (configuration not stated)
Second: COc1ccc(OCCCOc2cc(=O)n(CCCO)c3c2CC(C/C=C(\C)CCC=C(C)C)C(C)(C)C3)cc1 (configuration not stated)
The inhibition at 10 µM of the first is higher: 25.2% for the first, 20% for the second.

Compared with `CC(C)=CCC1Cc2c(O)cc(=O)n(CCCO)c2CC1(C)C` (configuration not stated), `CC(C)=CCC1Cc2c(OC(=O)Nc3ccccc3F)cc(=O)n(CCCO)c2CC1(C)C` (configuration not stated) is higher in inhibition at 10 µM: 25.6% for the first, 52.3% for the second.

First: CC(C)=CCC/C(C)=C/CC1Cc2c(OCCCNS(=O)(=O)c3ccc(Br)cc3)cc(=O)n(CCCO)c2CC1(C)C (configuration not stated)
Second: CC(C)=CCC1Cc2c(OCCCNS(=O)(=O)c3ccc(C(F)(F)F)cc3)cc(=O)n(CCCO)c2CC1(C)C (configuration not stated)
The inhibition at 10 µM of the first is lower: 15.2% for the first, 29.6% for the second.

First: CC(C)=CCC/C(C)=C/CC1Cc2c(OC(=O)Nc3ccc(F)c(Cl)c3)cc(=O)n(CCCO)c2CC1(C)C (configuration not stated)
Second: CC(C)=CCC1Cc2c(OC(=O)Nc3ccc(F)c(Cl)c3)cc(=O)n(CCCO)c2CC1(C)C (configuration not stated)
The inhibition at 10 µM of the first is lower: 25% for the first, 79.8% for the second.

Going from `CC(C)=CCC1Cc2c(OCCCNC(=O)c3ccc([N+](=O)[O-])cc3)cc(=O)n(CCCO)c2CC1(C)C` (configuration not stated) to `CC(C)=CCC/C(C)=C/CC1Cc2c(OCCCOc3ccc([N+](=O)[O-])cc3)cc(=O)n(CCCO)c2CC1(C)C` (configuration not stated), the inhibition at 10 µM rises from 49.9% to 65.1%.

Going from `COc1ccccc1NC(=O)Oc1cc(=O)n(CCCO)c2c1CC(C/C=C(\C)CCC=C(C)C)C(C)(C)C2` (configuration not stated) to `COc1cccc(NC(=O)Oc2cc(=O)n(CCCO)c3c2CC(CC=C(C)C)C(C)(C)C3)c1` (configuration not stated), the inhibition at 10 µM falls from 53% to 16.2%.

Compared with `CC(C)=CCC1Cc2c(OCCCOc3ccc(Cl)cc3)cc(=O)n(CCCO)c2CC1(C)C` (configuration not stated), `COc1ccc(OCCCOc2cc(=O)n(CCCO)c3c2CC(CC=C(C)C)C(C)(C)C3)cc1` (configuration not stated) is higher in inhibition at 10 µM: 22.7% for the first, 47.7% for the second.

Molecule `CC(C)=CCC1Cc2c(OC(=O)Nc3ccc(Cl)cc3)cc(=O)n(CCCO)c2CC1(C)C` (configuration not stated) has an inhibition at 10 µM of 49.8%.

Tested on: PANC-1
Assay: Growth inhibition of human PANC1 cells in nutrient-rich medium at 10 uM incubated for 24 hrs by MTT assay (reference value: 0.0 +/- 3.8%)
Type: functional
Conditions: PANC-1, 24 h

Going from `CC(C)=CCC1Cc2c(OC(=O)Nc3cccc(C(F)(F)F)c3)cc(=O)n(CCCO)c2CC1(C)C` (configuration not stated) to `CC(C)=CCC/C(C)=C/CC1Cc2c(OC(=O)Nc3cccc(C(F)(F)F)c3)cc(=O)n(CCCO)c2CC1(C)C` (configuration not stated), the inhibition at 10 µM rises from 0% to 6.7%.

Compared with `CC(C)=CCOc1cc(=O)n(CCCO)c2c1CC(CC=C(C)C)C(C)(C)C2` (configuration not stated), `CC(C)=CCC/C(C)=C/CC1Cc2c(OCC=C(C)C)cc(=O)n(CCCO)c2CC1(C)C` (configuration not stated) is higher in inhibition at 10 µM: 7.5% for the first, 15.9% for the second.

Compared with `CC(C)=CCC/C(C)=C/CC1Cc2c(OC(=O)Nc3ccc(F)cc3F)cc(=O)n(CCCO)c2CC1(C)C` (configuration not stated), `CC(C)=CCC/C(C)=C/CC1Cc2c(OC(=O)Nc3ccccc3F)cc(=O)n(CCCO)c2CC1(C)C` (configuration not stated) is lower in inhibition at 10 µM: 15.6% for the first, 0% for the second.

Going from `CC(C)=CCC1Cc2c(OCCCNC(=O)c3ccco3)cc(=O)n(CCCO)c2CC1(C)C` (configuration not stated) to `CC(C)=CCC1Cc2c(OCCCNC(=O)c3cccs3)cc(=O)n(CCCO)c2CC1(C)C` (configuration not stated), the inhibition at 10 µM rises from 4.3% to 5.6%.

Going from `CC(C)=CCC/C(C)=C/CC1Cc2c(OC(=O)Nc3ccc(F)cc3)cc(=O)n(CCCO)c2CC1(C)C` (configuration not stated) to `CC(C)=CCC/C(C)=C/CC1Cc2c(OC(=O)Nc3ccc(Cl)cc3)cc(=O)n(CCCO)c2CC1(C)C` (configuration not stated), the inhibition at 10 µM falls from 6.2% to 4.3%.

Compared with `CC(C)=CCC1Cc2c(OCCCNS(=O)(=O)c3ccc(Cl)cc3)cc(=O)n(CCCO)c2CC1(C)C` (configuration not stated), `CC(C)=CCC1Cc2c(OCCCNS(=O)(=O)c3ccc([N+](=O)[O-])cc3)cc(=O)n(CCCO)c2CC1(C)C` (configuration not stated) is higher in inhibition at 10 µM: 9.8% for the first, 17.3% for the second.

`CC(C)=CCC/C(C)=C/CC1Cc2c(OCCCOc3ccc(Cl)cc3)cc(=O)n(CCCO)c2CC1(C)C` (configuration not stated) and `COc1ccc(OCCCOc2cc(=O)n(CCCO)c3c2CC(C/C=C(\C)CCC=C(C)C)C(C)(C)C3)cc1` (configuration not stated) are the same in inhibition at 10 µM: 0% for the first, 0% for the second.

`CC(C)=CCC1Cc2c(O)cc(=O)n(CCCO)c2CC1(C)C` (configuration not stated) and `CC(C)=CCC1Cc2c(OC(=O)Nc3ccccc3F)cc(=O)n(CCCO)c2CC1(C)C` (configuration not stated) are the same in inhibition at 10 µM: 0% for the first, 0% for the second.

`CC(C)=CCC/C(C)=C/CC1Cc2c(OCCCNS(=O)(=O)c3ccc(Br)cc3)cc(=O)n(CCCO)c2CC1(C)C` (configuration not stated) and `CC(C)=CCC1Cc2c(OCCCNS(=O)(=O)c3ccc(C(F)(F)F)cc3)cc(=O)n(CCCO)c2CC1(C)C` (configuration not stated) are the same in inhibition at 10 µM: 0% for the first, 0% for the second.

`CC(C)=CCC/C(C)=C/CC1Cc2c(OC(=O)Nc3ccc(F)c(Cl)c3)cc(=O)n(CCCO)c2CC1(C)C` (configuration not stated) and `CC(C)=CCC1Cc2c(OC(=O)Nc3ccc(F)c(Cl)c3)cc(=O)n(CCCO)c2CC1(C)C` (configuration not stated) are the same in inhibition at 10 µM: 0% for the first, 0% for the second.

Compared with `CC(C)=CCC1Cc2c(OCCCNC(=O)c3ccc([N+](=O)[O-])cc3)cc(=O)n(CCCO)c2CC1(C)C` (configuration not stated), `CC(C)=CCC/C(C)=C/CC1Cc2c(OCCCOc3ccc([N+](=O)[O-])cc3)cc(=O)n(CCCO)c2CC1(C)C` (configuration not stated) is higher in inhibition at 10 µM: 9.1% for the first, 9.8% for the second.

`COc1ccccc1NC(=O)Oc1cc(=O)n(CCCO)c2c1CC(C/C=C(\C)CCC=C(C)C)C(C)(C)C2` (configuration not stated) and `COc1cccc(NC(=O)Oc2cc(=O)n(CCCO)c3c2CC(CC=C(C)C)C(C)(C)C3)c1` (configuration not stated) are the same in inhibition at 10 µM: 0% for the first, 0% for the second.

First: CC(C)=CCC1Cc2c(OCCCOc3ccc(Cl)cc3)cc(=O)n(CCCO)c2CC1(C)C (configuration not stated)
Second: COc1ccc(OCCCOc2cc(=O)n(CCCO)c3c2CC(CC=C(C)C)C(C)(C)C3)cc1 (configuration not stated)
The inhibition at 10 µM of the first is lower: 0% for the first, 4.1% for the second.

`CC(C)=CCC1Cc2c(OC(=O)Nc3ccc(Cl)cc3)cc(=O)n(CCCO)c2CC1(C)C` (configuration not stated) was tested, and the inhibition at 10 µM was 0%.

Tested on: PANC-1
Assay: Growth inhibition of human PANC1 cells in nutrient-deprived medium incubated for 24 hrs by MTT assay
Type: functional, cell-based
Conditions: PANC-1, 24 h

`CC(C)=CCC/C(C)=C/CC1Cc2c(OC(=O)Nc3ccccc3F)cc(=O)n(CCCO)c2CC1(C)C` (configuration not stated) and `CC(C)=CCC1Cc2c(OC(=O)Nc3ccc(F)c(Cl)c3)cc(=O)n(CCCO)c2CC1(C)C` (configuration not stated) are within 1.5-fold of each other in IC50: 7.4 µM for the first, 6.8 µM for the second.

Molecule `CC(C)=CCC/C(C)=C/CC1Cc2c(OCCCOc3ccc([N+](=O)[O-])cc3)cc(=O)n(CCCO)c2CC1(C)C` (configuration not stated) has an IC50 of 6.3 µM.
